Where two headings read alike, the source gives them in different places.
Columns and labels:
Arthus reaction [1] = conditions: background statement; cited from earlier work
Arthus reaction [2] = test: Mice-Arthus Test; assay type: in vivo, male BABL/c mice; conditions: for minimal effective dose: Mus musculus, 3 h, orally 24 hr and 1 hr before the challenge, read-out: Minimum Effective Dose Arthus
Protocol: The activity of effect for rheumatoid arthritis may be estimated by effect for Arthus reaction. […] Two weeks later, mice were boosted by the i.v. injection of 8×10^7 SRBC and 5 day later the animals were challenged by the subcutaneous injection of 1×10^8 SRBC in 25 μl of PBS into the right hind footpad. The thickness of the SRBC-injection right hind paw and contralateral left hind paw were measured with micrometer 3 hr after the challenge. The difference between these two measurements is regarded as the oedema due to the Arthus reaction. Percentage inhibition of the reaction was determined by comparison with the positive control group. The test compounds were administered orally 24 hr and 1 hr before the challenge.

adjuvant arthritis [3] = test: Rat-Adjuvant Arthritis Test; assay type: in vivo, male Sprague-Dawley rats; conditions: for effect in rat adjuvant arthritis test, in words: in vivo; for minimal effective dose: Rattus norvegicus, po, orally once a day for 5 days (day 15 to 19), lowest dose with significant reduction (p<0.001) of foot volume, read-out: Minimum Effective Dose Adjuvant Arthritis
From the text: Rat adjuvant arthritis test is one of a few and most useful pharmacological model for the investigation of human […] inflammation. It is known that the effective compounds to this model system are useful for treatment of rheumatoid arthritis, such as steroids or non-steroidal anti-inflammatory drugs (Oyo Yakuri, 5, 169 (1971).
According to the method of Winter et al., Arth. Rheum., 9, 394 (1966), male Sprague-Dawley rats, 6 weeks of age, were given subplantar injection of the adjuvant consisting of 1 mg of killed Mycobacterium butyricum (Difco) and 0.2 ml of liquid paraffin. Fourteen days after, the rats with established arthritis were treated by the drug as follows: the test compound was suspended in 5% gum arabic solution and orally given once a day for 5 days, day 15 to day 19. Control rats were given gum arabic in the same way. On day 19, the volume of right foot was determined with a plethusometer. The lowest dose which gave significant reduction (p<0.001)of the foot volume from that of the control group was regarded as a minimum effective dose (MED).

adjuvant arthritis [4] = conditions: background statement; cited from earlier work
5-lipoxygenase = target: T1, 5-lipoxygenase (Cavia porcellus, UniProt A0A286X958); test: 5-Lypoxygenase Inhibitory Test; assay type: cell-based, Hartley guinea pigs; conditions: PMNs from guinea pigs, A23187 stimulated, [14C] arachidonic acid; Inhibition (%) classes
T1 construct: polymorphonuclear leukocytes (PMNs) from Hartley guinea pigs; endogenous in cells; host or cells: casein-elicited peritoneal polymorphonuclear leukocytes of Hartley guinea pigs (intact cells)
T1 sequence (A0A286X958 1-674): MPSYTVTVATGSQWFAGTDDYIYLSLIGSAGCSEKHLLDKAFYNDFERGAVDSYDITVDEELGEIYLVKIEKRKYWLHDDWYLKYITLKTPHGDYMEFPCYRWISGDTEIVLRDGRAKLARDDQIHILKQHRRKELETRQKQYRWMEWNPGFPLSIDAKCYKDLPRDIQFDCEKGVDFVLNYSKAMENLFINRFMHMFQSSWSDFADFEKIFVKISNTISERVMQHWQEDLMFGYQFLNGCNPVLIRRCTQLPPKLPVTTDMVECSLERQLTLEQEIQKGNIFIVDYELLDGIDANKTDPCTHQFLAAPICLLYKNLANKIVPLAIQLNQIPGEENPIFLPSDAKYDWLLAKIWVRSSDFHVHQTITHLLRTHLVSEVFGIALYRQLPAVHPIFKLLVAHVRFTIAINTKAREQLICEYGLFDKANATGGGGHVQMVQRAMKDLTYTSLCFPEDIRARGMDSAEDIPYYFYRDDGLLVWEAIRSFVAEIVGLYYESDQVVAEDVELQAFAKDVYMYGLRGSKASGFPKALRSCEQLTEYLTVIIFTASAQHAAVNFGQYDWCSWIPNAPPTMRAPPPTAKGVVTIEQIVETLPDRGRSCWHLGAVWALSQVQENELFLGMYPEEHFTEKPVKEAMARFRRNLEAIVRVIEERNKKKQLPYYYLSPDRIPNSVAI
Protocol: According to the method of Harvey et al., J. Pharmacol. Meth., 9, 147-155 (1983), polymorphonuclear leukocytes (PMNs) from Hartley guinea pigs weighting 280 to 350 g were elicited by intraperit oneal injection of 2% casein suspension (10 ml/100 g guiner pig weight), and collected 16-18 hrs later. The cells were washed with saline and finally suspended at 2.39×10^7 cells/ml in Krebs Ringer Bicarbonate buffer (KBR) pH 7.4.
935 μl of PMNs were aliquoted into 15 ml glass tubes and prewarmed to 37° C. in a shaking water bath. Drugs (10 μl of dimethylsulfoxide (DMSO)) were added 10 minutes prior to the addition of 1-^14 C-arachidonic acid (New England Neuclear Co.; 50 μl of 2 μCi/mlKBR) and calciumionophor, A23187 (Calbiochem Boehring Co.; 5 μl of 1 mg/mlDMSO). The reaction was terminated after a further 10 min by the addition of 0.2M citric acid (100 μl). Unstimulated controls were also included to determine the increased metabolism of arachidonic acid due to A23187. Samples were diluted with water (4 ml) and extracted twice with ethyl acetate (5 ml). The ethyl acetate was concentrated under a stream of nitrogen and two-thirds of the residue was applied to TLC plates. The plates were developed in toluene:dioxane:acetic acid=65:34:1.5at 10° C.
Radiochromatographic analysis of the labelled metabolites of [^14 C] arachidonic acid utilized a Berthold LB283 TLC Linear Analyzer. In samples and controls, a ratio of radioactivity of 5-HETE in metabolites to all of metabolites of [^14 C] arachidonic acid was calculated, and results were determined as percent inhibition calculated from those retios.

[5] = background statement, clinical use, cited from earlier work

In the case of `CC(C)(S)[C@@H](N)C(=O)O` [D-Penicillamine], the “effect in Arthus reaction, in words” value (Arthus reaction [1]) is given as “non-effective”, the “effect in mice Arthus reaction test, in words” value (Arthus reaction [2]; mouse, in vivo) is given as “non-effective” and the “Adjuvant Arthritis (result in words)” value (adjuvant arthritis [3]; at 200 mg/kg) is given as “non-effective”. The “effect in rat adjuvant arthritis test, in words” value (adjuvant arthritis [3]) was “non-effective” and the “effect in adjuvant arthritis test, in words” value (adjuvant arthritis [4]) was “non-effective”.

In the case of `CNc1nc(C(C)c2ccc(-c3ccccc3)c(F)c2)cs1` (stereo not drawn) [Example 2, 4-[1-(2-fluoro-4-biphenylyl)ethyl]-2-methylaminothiazole], the minimal effective dose (Arthus reaction [2]) is reported as 10 mg/kg and the minimal effective dose (adjuvant arthritis [3]) is reported as 25 mg/kg.

With `CC(c1ccc(-c2ccccc2)c(F)c1)c1coc(N)n1` (stereo not drawn) [Example 7, 2-Amino-4-(1-(2-fluoro-4-biphenylyl)ethyl)oxazole] the minimal effective dose (Arthus reaction [2]) was 10 mg/kg and the minimal effective dose (adjuvant arthritis [3]) was 10 mg/kg.

Work on `CC(c1cccc(C(=O)c2ccccc2)c1)c1nc(N(C)C)no1` (stereo not drawn) [Example 11, 3-dimethylamino-5-(1-(3-benzoylphenyl)ethyl)-1,2,4-oxadiazole] yielded a minimal effective dose (Arthus reaction [2]) of 10 mg/kg and a minimal effective dose (adjuvant arthritis [3]) of 2.5 mg/kg.

For `CC(c1ccc(-c2ccccc2)c(F)c1)c1nc(N)no1` (stereo not drawn) [Example 21, 3-amino-5-(1-(2-fluoro-4-biphenylyl)ethyl)-1,2,4-oxadiazole], the “Activity of Inhibition (5-lipoxygenase)” value (5-lipoxygenase) was “++ (40-70%)”, the minimal effective dose (Arthus reaction [2]) was 10 mg/kg and the minimal effective dose (adjuvant arthritis [3]) was 2.5 mg/kg.

In the case of `CC(c1cccc(C(=O)c2ccccc2)c1)c1nc(N)no1` (stereo not drawn) [Example 22], the “Activity of Inhibition (5-lipoxygenase)” value (5-lipoxygenase) is reported as “+++ (70%<)”, the minimal effective dose (Arthus reaction [2]) is reported as 50 mg/kg and the minimal effective dose (adjuvant arthritis [3]) is reported as 2.5 mg/kg.

`CC(c1ccc(-c2ccccc2)c(F)c1)c1csc(N(C)C)n1` (stereo not drawn) [Example 48, 4-(1-(2-fluoro-4-biphenylyl)ethyl)-2-dimethylaminothiazole] gave a minimal effective dose (Arthus reaction [2]) of 50 mg/kg and a minimal effective dose (adjuvant arthritis [3]) of 10 mg/kg.

With `CC(c1cccc(C(=NO)c2ccccc2)c1)c1nc(N)no1` (stereo not drawn) [Example 65] the “Activity of Inhibition (5-lipoxygenase)” value (5-lipoxygenase) was “+++ (70%<)”.

In the case of `CN(C)c1noc(Cc2cccc(C(=NO)c3ccccc3)c2)n1` [Example 67], the “Activity of Inhibition (5-lipoxygenase)” value (5-lipoxygenase) is reported as “+++ (70%<)”, the minimal effective dose (Arthus reaction [2]) is reported as 50 mg/kg and the minimal effective dose (adjuvant arthritis [3]) is reported as 10 mg/kg.

Compound `CC(c1cccc(C(=O)c2ccccc2)c1)c1cc(N)on1` (stereo not drawn) [Example 74] has a minimal effective dose (Arthus reaction [2]) of 50 mg/kg and a minimal effective dose (adjuvant arthritis [3]) of 2.5 mg/kg.

In the case of `c1ccc(CCNc2nc(-c3ccccc3)cs2)cc1` [fanetizole, 2-phenethylamino-4-phenylthiazole], the “effect in Arthus reaction, in words” value (Arthus reaction [1]) is given as “effective” and the “effect in adjuvant arthritis test, in words” value (adjuvant arthritis [4]) is given as “non-effective”.

For `c1ccc([C@H]2CN3CCSC3=N2)cc1` [levamizole], the side effects [5] is listed as “serious side effects”, the side effects ([5]; listed as Levamizole) is listed as “many severe side-effects” and the “effect in Arthus reaction, in words” value (Arthus reaction [1]) is listed as “effective”. The minimal effective dose (Arthus reaction [2]) was 50 mg/kg, the “Adjuvant Arthritis (result in words)” value (adjuvant arthritis [3]; at 50 mg/kg) was “non-effective” and the “effect in rat adjuvant arthritis test, in words” value (adjuvant arthritis [3]) was “non-effective”. For the same compound, the “effect in adjuvant arthritis test, in words” value (adjuvant arthritis [4]) was “non-effective”.

For `O=C(Nc1nc(-c2ccccc2)cs1)OCC(Cl)(Cl)Cl` [lotifazole, 4-phenyl-2-(2',2',2'-trichloroethoxycarboxamido)thiazole], the “effect in Arthus reaction, in words” value (Arthus reaction [1]) is listed as “effective” and the “effect in adjuvant arthritis test, in words” value (adjuvant arthritis [4]) is listed as “non-effective”.
